In patent US8476317B2, “N-alkylcarbonyl-amino acid ester compounds and their use for cough and pharyngitis” (priority 2011, dated 2013):

Assays:
Assay type in all cases: in vivo, human
cough = details: for cooling action of ODT on the pharyngeal surface: Study 6, ODT; for effectiveness in reducing cough: Study 6, ODT 2.0 to 2.5 mg, 14 adult males with cough
Method: In 20 trials, 10 trials per subject, two mg of 95%+ pure powder of a D-Ala ethyl compound (No. 2 in Table 1, (R)-2-[((1R,2S,5R)-2-isopropyl-5-methyl-cyclohexanecarbonyl)-amino]-propionic acid ethyl ester)) of Formula (1) was placed on the mid-portion of the tongue of these two subjects. Both subjects reported relief from the desire to cough within 1 minute after application. Sensations of robust coolness in the back of the throat was noted and lasted for about 30 minutes. Applications of similar amounts of powdered sugar were not effective. The placebo could be clearly distinguished from the active compound because of the absence of cooling sensations.
A person with a documented 31-year history of asthma attacks volunteered to test one of the compounds falling within Formula (1). They were extremely sensitive to agents such as tobacco smoke, dust, pollen, odors, down/woolen materials, house cleansing products, pets, and sudden change of air temperature, and reacted with violent coughing, mucus secretions, wheezing, choking, and shortness of breath. At the time of this trial, they were taking these medications for their condition: theophylline, Allegra®, Advair®, Intal®, and Singulair®. In 5 trials, during a coughing spree, they placed one to two mg of 95%+ pure powder of a D-Ala ethyl ester (No. 2 in Table 1, ((R)-2-[((1R,2S,5R)-2-isopropyl-5-methyl-cyclohexanecarbonyl)-amino]-propionic acid ethyl ester))) of Formula (1) on the mid-portion of their tongue. They reported a soothing and cool sensation with a slight taste similar to Eucalyptus oil in their mouth and throat. Coughing stopped after 3 to 5 minutes and breathing was normal. […] In three trials when the compound was applied at night, they slept through the night without being awakened by cough. Their spouse remarked that, in over 30 years of marriage, this was the first time that they had seen an effective medication for their cough. They noted that the irritative signals of cough were absent in the presence of the applied chemical, but they still sensed a mechanical build up of secretions in their airways and could voluntarily cough up such secretions if necessary. They continue to use the test compound for management of their asthma, with the knowledge and consent of their physician.
A person had adult-onset asthma for 20 years. Triggers for attacks were tobacco smoke, dust, and changes in air temperature. They used Foradil® (formoterol fumarate) and Asmanex® (mometasone fuorate) twice a day to control their asthma, and monitored their pulmonary function with a portable device for measuring peak expiratory flow. They had daily episodes of both productive and non-productive cough. In 5 trials, when they felt throat irritation and a desire to cough, placement of 1 to 3 mg of (R)-2-[((1R,2S,5R)-2-isopropyl-5-methyl-cyclohexanecarbonyl)-amino]-propionic acid ethyl ester) (No. 2 in Table 1) provided rapid relief and was described as soothing and removed “tightness” in the chest. Peak expiratory flow improved from 320 Umin to 370 Umin. […] The subjective response to the long-acting NACE compound was definitely favourable. The subject remarked that the best time to use the NACE compuound was after inhaling the crystalline Foradil® because this inhaled drug irritated their throat.
ODT containing 2.0 to 2.5 mg of D-Aa Me Ester, D-Ala Et Ester, or D-Ala iPr Ester (identified chemically in Table 1 as No. 1, No. 2, and No. 3, respectively) were prepared using mannitol/maltitol as the excipient and stored in tic-tac boxes each containing 10 tablets. Over a course of two years, 14 adult males with cough tested these tablets. The causes of coughing were colds/flu, allergies, pharyngitis, excessive smoking, and two cases of gastroesophageal reflux. These individuals all had advanced degrees (M.D. or Ph.D.) and were motivated to try the tablets by scientific curiosity or because of financial interests in drug development, or, in several cases, by the annoyance caused by the cough. […]

ocular surface = test: Eye wipe test, duration of cooling on ocular surface; details: eye wipes 1 mg/ml in 5%-95% v/v ethanol-distilled water
Method: To further document the activities fo the test molecules, the results from an eye wipe test was included. Here the test substance is applied to the closed eyelids with a towelette at a concentration of 1 mg/ml in 5%-ethanol-95%-distilled water vol/vol and the duration of cooling on the ocular surface was recorded. […] It is likely that the mucous membranes that line the ocular surface and the pharynx have similar sensory mechanisms that are somewhat different from the philtrum skin which is keratinized.

philtrum skin = test: Cooling on facial (philtrum) skin, ointment; details: for Philtrum Skin (min), duration of cooling: 5 mg/ml in Aquaphor ointment; for skin or eye irritancy: in vivo
From the text: A reliable place for topical application is the skin above the upper lip (above the vermilion border of the lips), on the philtrum, lateral to the philtrum until the nasolabial folds, and on the lower nostrils (subnasale). This part of the face is known to be densely innervated with cold receptors, second only to the surfaces of the eyeball and anogenitalia. At this locus, tingling, cool and cold sensations in the skin may be experienced and rated for time of onset and intensity.
The intervals for recording sensations are 5 to 10 minutes, until two successive zeroes are obtained. The results (shown in FIG. 1) are averaged values of 4 to 6 separate trials in the same individual. The data are plotted using SigmaPlot® (Systat Software, Point Richmond Calif.) and a smoothing function with a negative exponential was used for analysis and statistical fit of the results. Confirmatory trials of cooling action of the long-acting NACE compounds were obtained in 2 to 4 individuals but not quantified for some because of the large number of chemicals that were evaluated.
(§1) The onset of drug action is taken as the time to reach 2 units of coolness intensity, and offset of drug action is the time when coolness intensity drops below 2, after previously surpassing 2 units. The duration of cooling action is defined as the offset time minus the onset time. […] The quality of the sensation is noted, for example, as pure refreshing coolness, or if the sensation is accompanied by irritation (stinging or burning). The quality of the sensation is not rated for intensity.
For bioassay on the skin, approximately 30 mg was stirred and dissolved in 3 g of warm liquid Aquaphor® ointment to a yield a 40 mM (˜1% wt/vol) ointment. The exact amount was adjusted so that the molar equivalent was about 35 to 40 mM. After cooling, 40 to 70 mg of the solid ointment was placed on the tip of a plastic stick and applied to the skin above the upper lip, on the philtrum, and lateral to the philtrum, up to the nasolabial folds, of test subjects and the onset and duration of cooling sensations noted.
The intervals for recording sensations were 5 to 10 minutes, until two successive zeroes were obtained. The results (shown in FIG. 1) are averaged values of 4 to 6 separate trials in the same individual. The data are plotted using SigmaPlot® (Systat Software, Point Richmond, Calif., USA) and a smoothing function with a negative exponential was used for analysis and statistical fit of the results.
as §1, with “was” for “is”, “was also noted: such” for “is noted, for example,”
In the results of FIG. 1, the test compounds were singly applied to the skin above the upper lips as a ˜1% wt/vol (10 mg/ml) ointment. Subsequently, for the results shown in Table 3, the test dose on the philtrum was reduced to a 0.5% wt/vol (5 mg/ml) ointment. The reason for choosing a lower dose was to increase the number of trials per individual and to have a reduced chance of substances accumulating in the skin.

Compound | cooling action of ODT on the pharyngeal surface (cough) | Eyelids/Ocular Surface (min), duration of cooling (ocular surface) [min] | Philtrum Skin (min), duration of cooling (philtrum skin) [min] | duration of absence of irritation and itching at the back of the throat (cough signals) (cough; Study 3) [h] | time individual was observed not to cough (cough; Study 3) [h] | time desire to cough was removed (cough; Study 3, after 4 or 6 applications within 2 days) | time to relief from the desire to cough (cough; Study 3, two cigar smokers, two mg powder on tongue) [min] | duration of robust coolness in the back of the throat (cough; Study 3, two mg powder on tongue) | time until coughing stopped (cough; Study 4, asthmatic, one to two mg on tongue) [min] | recurrence of asthmatic coughing attacks (cough; Study 4, continued use) | effect when given in the midst of a productive cough spell (cough; Study 5, 3 episodes) | relief of throat irritation and desire to cough (cough; Study 5, 5 trials, 1 to 3 mg) | Peak expiratory flow (cough; Study 5, asthmatic, 1 to 3 mg, improved from 320) [Umin] | effectiveness in reducing cough (cough) [%] | side-effects (cough; human, in vivo) | skin or eye irritancy (philtrum skin)
CCOC(=O)C(C)NC(=O)[C@@H]1C[C@H](C)CC[C@H]1C(C)C (stereo partly drawn) [L-Ala-OEt] | inactive | 0 | 34 |  |  |  |  |  |  |  |  |  |  |  |  | 
CCOC(=O)[C@@H](C)NC(=O)[C@@H]1C[C@H](C)CC[C@H]1C(C)C [D-Ala-OEt, (R)-2-[((1R,2S,5R)-2-isopropyl-5-methyl-cyclohexanecarbonyl)-amino]-propionic acid ethyl ester] | robust cooling action | 180 |  | 4 to 5 | 6 to 8 | at least 5 days | ≤ 1 | about 30 minutes | 3 to 5 | have not recurred with any severity for one month | no significant effects were observed | rapid relief | 370 | 100 | did not sense any build up of mucus or other side-effects | without skin or eye irritancy
COC(=O)[C@@H](C)NC(=O)[C@@H]1C[C@H](C)CC[C@H]1C(C)C [D-Ala-OMe, (R)-2-[((1R,2S,5R)-2-isopropyl-5-methyl-cyclohexanecarbonyl)-amino]-propionic acid methyl ester] | robust cooling action | 120 | 77 |  |  |  |  |  |  |  |  |  |  | 100 |  | without skin or eye irritancy
